Experimental data reported in patent US11180511B2, “Diagnosis, treatment and prevention of neurotensin receptor-related conditions” (Friedrich-Alexander-Universitat Erlangen-Nurnberg, priority 2016, dated 2021).

Key:
hNTS2 = hNTS2 (Homo sapiens, UniProt O95665); experiment: competitive radioligand binding, hNTS2; conditions: [^3H]NT (8-13); HEK
Description: (§1) Affinities for NTS1 and NTS2 as well as for dopaminergic and serotonergic receptors were determined in competitive radioligand binding assays using appropriate radioligands as shown in Table 1.

hNTS1 = hNTS1 (Homo sapiens, UniProt P30989); experiment: competitive radioligand binding, hNTS1; conditions: [^3H]NT; CHO
Chain of hNTS1 (P30989 whole entry): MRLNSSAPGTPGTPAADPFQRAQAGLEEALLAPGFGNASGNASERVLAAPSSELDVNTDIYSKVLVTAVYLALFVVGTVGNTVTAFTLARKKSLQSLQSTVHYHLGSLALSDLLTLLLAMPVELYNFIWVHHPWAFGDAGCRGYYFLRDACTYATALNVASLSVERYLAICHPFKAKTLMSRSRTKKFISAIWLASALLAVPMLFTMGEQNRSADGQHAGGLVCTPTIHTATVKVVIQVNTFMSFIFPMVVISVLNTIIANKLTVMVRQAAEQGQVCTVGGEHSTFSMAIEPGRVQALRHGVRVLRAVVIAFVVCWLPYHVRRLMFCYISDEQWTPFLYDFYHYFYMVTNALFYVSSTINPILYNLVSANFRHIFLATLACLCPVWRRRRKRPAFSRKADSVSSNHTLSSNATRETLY
Description: as §1

pα1 = experiment: competitive radioligand binding, pα1; conditions: [^3H] prazosine
hD2short = hD2short (Homo sapiens, UniProt P14416); experiment: competitive radioligand binding, hD2short; conditions: [^3H] spiperone
Chain of hD2short (P14416 1-414 isoform P14416-2): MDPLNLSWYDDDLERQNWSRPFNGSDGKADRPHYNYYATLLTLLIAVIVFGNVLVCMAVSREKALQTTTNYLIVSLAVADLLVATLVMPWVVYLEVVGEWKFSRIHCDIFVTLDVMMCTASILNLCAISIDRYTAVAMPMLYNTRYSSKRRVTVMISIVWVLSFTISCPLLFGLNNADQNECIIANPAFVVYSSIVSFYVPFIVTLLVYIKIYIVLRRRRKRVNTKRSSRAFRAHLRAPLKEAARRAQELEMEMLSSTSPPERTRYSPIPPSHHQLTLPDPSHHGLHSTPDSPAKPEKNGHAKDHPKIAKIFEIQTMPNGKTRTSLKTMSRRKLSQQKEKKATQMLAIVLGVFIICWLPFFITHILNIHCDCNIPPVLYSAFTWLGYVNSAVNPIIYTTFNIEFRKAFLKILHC
Description: as §1

p5-HT1A = molecular target: T1, p5-HT1A (Sus scrofa, UniProt A0A4X1UTF5); experiment: competitive radioligand binding, p5-HT1A; conditions: [^3H] WAY600135
T1 sequence (A0A4X1UTF5 1-422): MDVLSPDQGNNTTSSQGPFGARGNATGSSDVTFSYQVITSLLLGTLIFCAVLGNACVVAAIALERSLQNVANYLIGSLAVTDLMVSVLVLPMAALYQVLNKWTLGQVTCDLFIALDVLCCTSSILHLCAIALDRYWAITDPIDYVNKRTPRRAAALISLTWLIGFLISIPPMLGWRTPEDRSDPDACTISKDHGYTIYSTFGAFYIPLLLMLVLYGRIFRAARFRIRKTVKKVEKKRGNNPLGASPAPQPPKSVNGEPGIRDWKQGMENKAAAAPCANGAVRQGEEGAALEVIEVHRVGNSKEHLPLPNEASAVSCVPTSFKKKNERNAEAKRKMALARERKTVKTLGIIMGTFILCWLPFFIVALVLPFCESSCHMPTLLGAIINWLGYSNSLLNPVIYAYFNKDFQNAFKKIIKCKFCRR
Description: as §1

hD5 = hD5 (Homo sapiens, UniProt P21918); experiment: competitive radioligand binding, hD5; conditions: [^3H] SCH 23990
Chain of hD5 (P21918 whole entry): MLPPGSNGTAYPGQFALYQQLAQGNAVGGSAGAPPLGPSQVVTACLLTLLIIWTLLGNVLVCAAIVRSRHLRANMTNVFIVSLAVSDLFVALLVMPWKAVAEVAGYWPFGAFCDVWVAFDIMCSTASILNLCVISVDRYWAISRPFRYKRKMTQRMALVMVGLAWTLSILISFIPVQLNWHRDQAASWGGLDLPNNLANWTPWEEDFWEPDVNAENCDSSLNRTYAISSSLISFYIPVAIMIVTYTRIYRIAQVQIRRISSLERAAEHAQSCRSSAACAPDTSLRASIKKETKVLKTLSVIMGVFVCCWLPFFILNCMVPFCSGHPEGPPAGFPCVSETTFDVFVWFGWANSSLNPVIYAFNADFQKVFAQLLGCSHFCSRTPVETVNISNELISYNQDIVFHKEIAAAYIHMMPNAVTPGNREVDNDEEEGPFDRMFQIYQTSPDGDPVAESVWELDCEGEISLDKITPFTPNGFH
Description: as §1

hD1 = hD1 (Homo sapiens, UniProt P21728); experiment: competitive radioligand binding, hD1; conditions: [^3H] SCH 23990
Chain of hD1 (P21728 whole entry): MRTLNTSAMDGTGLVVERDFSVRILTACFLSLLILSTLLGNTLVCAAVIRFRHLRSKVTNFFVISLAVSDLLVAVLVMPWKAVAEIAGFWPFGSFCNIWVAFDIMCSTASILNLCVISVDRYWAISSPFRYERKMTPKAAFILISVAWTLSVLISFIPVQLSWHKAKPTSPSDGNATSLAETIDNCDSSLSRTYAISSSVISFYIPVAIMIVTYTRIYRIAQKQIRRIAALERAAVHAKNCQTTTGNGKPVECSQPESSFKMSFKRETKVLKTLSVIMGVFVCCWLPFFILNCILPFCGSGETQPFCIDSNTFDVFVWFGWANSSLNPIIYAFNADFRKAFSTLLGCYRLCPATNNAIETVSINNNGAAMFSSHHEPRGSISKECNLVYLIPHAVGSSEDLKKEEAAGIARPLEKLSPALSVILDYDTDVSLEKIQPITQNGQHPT
Description: as §1

hD2long = hD2long (Homo sapiens, UniProt P14416); experiment: competitive radioligand binding, hD2long; conditions: [^3H] spiperone
Chain of hD2long (P14416 whole entry): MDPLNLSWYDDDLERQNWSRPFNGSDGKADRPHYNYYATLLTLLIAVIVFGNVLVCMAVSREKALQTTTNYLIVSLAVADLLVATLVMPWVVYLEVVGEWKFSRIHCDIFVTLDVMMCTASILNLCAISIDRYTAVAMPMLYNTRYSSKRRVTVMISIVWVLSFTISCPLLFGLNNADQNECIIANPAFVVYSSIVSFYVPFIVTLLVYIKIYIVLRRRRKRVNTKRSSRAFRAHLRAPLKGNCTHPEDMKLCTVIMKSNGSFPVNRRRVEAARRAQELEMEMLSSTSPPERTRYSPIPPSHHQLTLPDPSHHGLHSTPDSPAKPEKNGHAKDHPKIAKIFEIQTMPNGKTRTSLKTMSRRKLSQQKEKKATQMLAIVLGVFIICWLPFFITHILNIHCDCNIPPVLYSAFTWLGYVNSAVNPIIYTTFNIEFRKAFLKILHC
Description: as §1

hD4.4 = molecular target: T2, hD4.4 (Homo sapiens, UniProt P21917); experiment: competitive radioligand binding, hD4.4; conditions: [^3H] spiperone
T2 sequence (P21917 1-419): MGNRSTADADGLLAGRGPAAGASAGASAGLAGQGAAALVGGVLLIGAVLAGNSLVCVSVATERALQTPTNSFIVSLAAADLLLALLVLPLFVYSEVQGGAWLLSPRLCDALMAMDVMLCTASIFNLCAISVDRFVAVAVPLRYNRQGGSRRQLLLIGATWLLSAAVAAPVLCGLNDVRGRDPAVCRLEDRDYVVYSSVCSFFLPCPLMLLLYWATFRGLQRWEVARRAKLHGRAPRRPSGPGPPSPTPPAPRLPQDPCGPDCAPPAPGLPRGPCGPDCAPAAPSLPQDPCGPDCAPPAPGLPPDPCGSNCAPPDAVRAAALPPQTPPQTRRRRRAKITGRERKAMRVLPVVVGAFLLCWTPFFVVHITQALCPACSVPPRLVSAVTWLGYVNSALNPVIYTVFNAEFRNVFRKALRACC
Description: as §1

hD3 = hD3 (Homo sapiens, UniProt P35462); experiment: competitive radioligand binding, hD3; conditions: [^3H] spiperone
Chain of hD3 (P35462 whole entry): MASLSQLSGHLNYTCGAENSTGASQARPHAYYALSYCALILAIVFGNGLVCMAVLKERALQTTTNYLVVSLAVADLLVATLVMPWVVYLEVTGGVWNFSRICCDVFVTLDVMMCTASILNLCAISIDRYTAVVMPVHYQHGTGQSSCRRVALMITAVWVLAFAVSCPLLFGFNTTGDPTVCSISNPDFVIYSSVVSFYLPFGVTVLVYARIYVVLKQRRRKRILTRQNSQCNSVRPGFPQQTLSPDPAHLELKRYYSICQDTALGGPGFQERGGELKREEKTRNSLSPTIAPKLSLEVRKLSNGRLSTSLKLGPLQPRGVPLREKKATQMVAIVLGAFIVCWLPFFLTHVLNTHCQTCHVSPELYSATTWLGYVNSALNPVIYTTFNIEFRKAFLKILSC
Description: as §1

h5-HT2 = h5-HT2 (Homo sapiens, UniProt P28223); experiment: competitive radioligand binding, h5-HT2; conditions: [^3H] ketanserin
Chain of h5-HT2 (P28223 whole entry): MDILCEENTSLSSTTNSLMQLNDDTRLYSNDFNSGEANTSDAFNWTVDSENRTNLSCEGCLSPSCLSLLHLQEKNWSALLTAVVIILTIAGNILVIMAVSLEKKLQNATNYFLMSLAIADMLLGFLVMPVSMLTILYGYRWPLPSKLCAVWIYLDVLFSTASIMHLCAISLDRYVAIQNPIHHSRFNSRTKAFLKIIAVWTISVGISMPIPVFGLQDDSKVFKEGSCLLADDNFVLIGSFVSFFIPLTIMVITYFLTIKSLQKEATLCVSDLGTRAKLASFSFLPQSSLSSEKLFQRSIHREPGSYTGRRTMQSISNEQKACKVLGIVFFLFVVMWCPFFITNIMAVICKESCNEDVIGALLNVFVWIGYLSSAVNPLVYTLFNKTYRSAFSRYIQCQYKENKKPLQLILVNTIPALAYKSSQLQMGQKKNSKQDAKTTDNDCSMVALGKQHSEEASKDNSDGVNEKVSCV
Description: as §1

[1] = Stability in human plasma; assay type: in vitro ADME; conditions: 37° C., up to 7 days
Description: An aliquot of ^177Lu-14 (FAUC Lu469) in PBS (50 μL) was added to human plasma (200 μL) and incubated at 37° C. Aliquots (25 μL) were taken at various time intervals (1 h, 4 h, 24 h, 96 h, 7 days) and quenched with acetonitrile/0.1% TFA (1:1, 100 μL). The samples were centrifuged, and the supernatants were analyzed by radio-HPLC.

PC3 = experiment: Biodistribution in xenografted nude mice, PC3 tumor uptake; assay type: in vivo, Athymic nude mice (nu/nu); conditions: i.v.
Description: (§2) Athymic nude mice (nu/nu) were obtained from Harlan Winkelmann GmbH (Borchen, Germany) at 4 weeks of age and were kept under standard conditions (12 h light/dark) with food and water available ad libitum. AsPC-1, PC-3 or HT29 cells were harvested and suspended in sterile PBS at a concentration of 2×10^7 cells/ml. Viable cells (2×10^6) in PBS (100 μL) were injected subcutaneously in the back. Two weeks after inoculation (tumor weight: 400-800 mg), the mice (about 10-12 weeks old with about 40 g body weight) were used for biodistribution studies.
(§3) The xenografted mice were injected with ^177Lu-14 (FAUC Lu469, 1 MBq/mouse) intravenously into the tail vein. The mice were sacrificed by cervical dislocation at 24 h and 48 h post-injection (p.i.). Tumors and other tissues (blood, lung, liver, kidneys, heart, brain, muscle and intestine) were removed and weighed. Radioactivity of the dissected tissues was determined using a γ-counter. Results were expressed as percentage of injected dose per gram of tissue (% ID/g), and tumor-to-organ ratios were calculated. Results are reported as percent injected dose per gram (% ID/g) in Table 2 and FIG. 1.

AsPC1 = experiment: Biodistribution in xenografted nude mice, AsPC1 tumor uptake; assay type: in vivo, Athymic nude mice (nu/nu); conditions: for Uptake AsPC1 tumor: i.v.
Description: as §2
as §3, with “The mice were sacrificed by cervical dislocation at 24 h and 48 h post-injection (p.i.).” left out

HT29 = experiment: Biodistribution in xenografted nude mice, HT29 tumor uptake; assay type: in vivo, Athymic nude mice (nu/nu); conditions: i.v.
Description: as §2, §3

[2] = Determination of partition coefficient (log D7.4); assay type: physicochemical; conditions: 1-octanol/PBS pH 7.4, room temperature
Description: The lipophilicity of ^177Lu-14 (FAUC Lu469) was assessed by determination of the water-octanol partition coefficient. 1-Octanol (0.5 mL) was added to a solution of approximately 25 kBq of ^177Lu-14 in PBS (0.5 mL, pH 7.4) and the layers were vigorously mixed for 3 min at room temperature. The tubes were centrifuged (14000 rpm, 1 min) and three samples of 100 μL of each layer were counted in a γ-counter (Wallac Wizard). The partition coefficient was determined by calculating the ratio cpm (octanol)/cpm (PBS) and expressed as log D74) log(cpmoctanol/cpmbuffer). The experiments were performed in triplicates. The log D7.4 value was determined to be −1.8±0.1 (mean value±standard deviation, n=6).

[3] = Biodistribution in xenografted nude mice, normal tissue; assay type: in vivo, Athymic nude mice (nu/nu); conditions: i.v.
Description: as §2, §3

PC1-3 tumors = experiment: Therapy study, PC1-3 tumors, single-dose administration; assay type: in vivo, Nude mice; conditions: single dose 30±9 MBq/animal
Description: Nude mice bearing PC1-3 tumors at the back were used for the therapy study. One week after inoculation of the PC1-3 cells, ^177Lu-14 (FAUC Lu469) was injected in four mice at a dose of 30±9 MBq/animal. Eight additional animals were injected with saline as control animals. The body weight and the tumor diameter was measured every three days. […] The tumor inhibition growth factor was 64% after 49 days.

[4] = system: AsPC-1 tumors (human pancreas adenocarcinoma); experiment: Therapy study, AsPC-1 tumors, single-dose and double-dose administration; assay type: in vivo, Nude mice
Description: Nude mice bearing AsPC-1 tumors (human pancreas adenocarcinoma) at the back were used for the therapy study. One week after inoculation of the AsPC-1 cells, six mice were injected with a single dose of ^177Lu-14 (FAUC Lu469) (28±6 MBq/animal, group B, single-dose administration) at day 0 and another six animals were injected with a double-dose of ^177Lu-14 (FAUC Lu469) (2×29±4 MBq/animal, group C, double-dose administration), consisting of the first dose (29 MBq/animal) at the starting day of radiotherapy (day 0) and the second dose (29 MBq/animal) at day 10 after begin of treatment. Six additional animals were injected with saline as untreated control animals (group A). The body weight and the tumor diameter were measured five times a week.

Chain of hNTS2 (O95665 whole entry): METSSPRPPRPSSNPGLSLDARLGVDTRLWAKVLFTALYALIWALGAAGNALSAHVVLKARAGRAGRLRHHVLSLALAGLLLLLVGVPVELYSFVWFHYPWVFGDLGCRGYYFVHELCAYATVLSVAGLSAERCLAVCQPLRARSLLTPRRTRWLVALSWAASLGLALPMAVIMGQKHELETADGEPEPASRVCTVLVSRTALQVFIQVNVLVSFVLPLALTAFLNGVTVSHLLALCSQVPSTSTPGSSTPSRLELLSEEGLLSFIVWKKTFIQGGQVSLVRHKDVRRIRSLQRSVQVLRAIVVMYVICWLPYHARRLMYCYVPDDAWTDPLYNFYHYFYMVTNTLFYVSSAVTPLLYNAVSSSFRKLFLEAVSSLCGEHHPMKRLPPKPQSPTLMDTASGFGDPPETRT

COc1cccc(OC)c1-c1cc(C(=O)NC2(C(=O)O)C3CC4CC(C3)CC2C4)nn1-c1ccc(-c2cn(CCCN(C)CCCNC(=O)CN3CCN(CC(=O)O)CCN(CC(=O)O)CCN(CC(=O)O)CC3)nn2)cc1C(C)C (stereo not drawn) [Compound 13] showed a Ki (hNTS2) of 100 nM and a Ki (hNTS1) of 1.9 nM.
For COc1cccc(OC)c1-c1cc(C(=O)NC2(C(=O)O)C3CC4CC(C3)CC2C4)nn1-c1ccc(-c2cn(CCCN(C)CCCNC(=O)CN3CCN(CC(=O)[O-])CCN(CC(=O)[O-])CCN(CC(=O)[O-])CC3)nn2)cc1C(C)C.[Lu+3] (stereo not drawn) [Compound 14], the Ki (pα1) was greater than 50000 nM, the Ki (hD2short) was greater than 50000 nM and the Ki (hNTS2) was 13 nM. For the same molecule, the Ki (p5-HT1A) was greater than 50000 nM, the Ki (hD5) was greater than 50000 nM and the Ki (hD1) was greater than 50000 nM. It also gave a Ki (hD2long) greater than 50000 nM, a Ki (hNTS1) of 0.19 nM and a Ki (hD4.4) greater than 50000 nM. The Ki (hD3) was greater than 50000 nM and the Ki (h5-HT2) was greater than 50000 nM.
COc1cccc(OC)c1-c1cc(C(=O)NC2(C(=O)O)C3CC4CC(C3)CC2C4)nn1-c1ccc(-c2cn(CCCN(C)C[C@@H](O)CNC(=O)CN3CCN(CC(=O)O)CCN(CC(=O)O)CCN(CC(=O)O)CC3)nn2)cc1C(C)C (stereo partly drawn) [Compound 19] gave a Ki (hNTS2) of 59 nM and a Ki (hNTS1) of 1.6 nM.
Molecule COc1cccc(OC)c1-c1cc(C(=O)NC2(C(=O)O)C3CC4CC(C3)CC2C4)nn1-c1ccc(-c2cn(CCCN(C)C[C@@H](O)CNC(=O)CN3CCN(CC(=O)[O-])CCN(CC(=O)[O-])CCN(CC(=O)[O-])CC3)nn2)cc1C(C)C.[Lu+3] (stereo partly drawn) [Compound 20] has a Ki (hNTS2) of 27 nM and a Ki (hNTS1) of 1.4 nM.
For COc1cccc(OC)c1-c1cc(C(=O)NC2(C(=O)O)C3CC4CC(C3)CC2C4)nn1-c1ccc(-c2cn(CCCN(C)CCCNC(=O)CN3CCN4CCN5CCN(CC3)CC(=O)[O][177Lu]([O]C(=O)C4)[O]C(=O)C5)nn2)cc1C(C)C (stereo not drawn) [^177Lu-14], the “Stability in human plasma (degradation products by radio-HPLC)” value [1] was “No degradation products were observed”, the “Uptake PC3 tumor” value (PC3; 24 h p.i.) was 15.57 % ID/g and the “Uptake PC3 tumor” value (PC3; 48 h p.i.) was 10.85 % ID/g. For the same molecule, the “Uptake AsPC1 tumor” value (AsPC1; 24 h p.i.) was 22.36 % ID/g, the “Uptake AsPC1 tumor” value (AsPC1; 48 h p.i.) was 14.41 % ID/g and the AsPC1-tumor retention (AsPC1; day 7 p.i.) was 13.2±2.1 % ID/g. The “Uptake HT29 tumor” value (HT29; 24 h p.i.) was 18.64 % ID/g, the “Uptake HT29 tumor” value (HT29; 48 h p.i.) was 16.34 % ID/g and the “log D7.4” value [2] was −1.8±0.1. For the same molecule, the Uptake blood ([3]; 24 h p.i.) was 0.36 % ID/g, the Uptake blood ([3]; 48 h p.i.) was 0.14 % ID/g and the Uptake brain ([3]; 24 h p.i.) was 0.06 % ID/g. It also gave an Uptake brain ([3]; 48 h p.i.) of 0.04 % ID/g, an Uptake femur ([3]; 24 h p.i.) of 0.89 % ID/g and an Uptake femur ([3]; 48 h p.i.) of 0.75 % ID/g. The Uptake heart ([3]; 24 h p.i.) was 1.05 % ID/g, the Uptake heart ([3]; 48 h p.i.) was 0.56 % ID/g and the Uptake intestine ([3]; 24 h p.i.) was 1.40 % ID/g. The Uptake intestine ([3]; 48 h p.i.) was 0.77 % ID/g, the Uptake kidney ([3]; 24 h p.i.) was 4.54 % ID/g and the Uptake kidney ([3]; 48 h p.i.) was 2.48 % ID/g. For the same molecule, the Uptake liver ([3]; 24 h p.i.) was 11.61 % ID/g, the Uptake liver ([3]; 48 h p.i.) was 5.45 % ID/g and the Uptake lung ([3]; 24 h p.i.) was 4.15 % ID/g. The Uptake lung ([3]; 48 h p.i.) was 1.23 % ID/g, the Uptake muscle ([3]; 24 h p.i.) was 0.29 % ID/g and the Uptake muscle ([3]; 48 h p.i.) was 0.19 % ID/g. The Uptake spleen ([3]; 24 h p.i.) was 2.40 % ID/g, the Uptake spleen ([3]; 48 h p.i.) was 1.60 % ID/g and the “tumor inhibition growth factor” value (PC1-3 tumors; after 49 days) was 64%. For the same molecule, the “survival versus untreated control animals” value (PC1-3 tumors) was “significantly longer survival”, the “tumor growth and tumor size versus untreated control animals” value (PC1-3 tumors) was “significantly inhibited tumor growth and a reduction in tumor size” and the “longer survival than untreated control animals” value ([4]; double-dose 2×29±4 MBq/animal (group C), day 0 and day 10) was “+209%”. For the same molecule, the “tumor growth and tumor size versus untreated control animals” value ([4]; single dose 28±6 MBq/animal (group B), between day 11 and 21, adjusted p=0.049) was “significant tumor growth inhibition and a reduction in tumor size”.
